From patent US9441263B2, “Ribosomal targets for antibiotic drug discovery” (Cornell University, priority 2011, dated 2016)
Entries after “also recorded” stand apart in the source; their conditions may differ. Starred links: 1 amine or outer side, 2 acyl side, 3 side chain; linkers in the order of their positions; H or OH if unused. Positions of bridges follow the written chain, without caps; N, C: chain ends. Non-standard residues stand in square brackets, D forms with d. Residues, ends and D or L forms follow the SMILES beside them. *: point of attachment. X1 = NC1=N[C@@H]([C@H](N[*:1])C(=O)[*:2])C[C@H](O)N1; ΔAla(Z-3-ureido) = NC(=O)N/C=C(\N)C(=O)O; β3hOrn = NCCC[C@H](N)CC(=O)*; Dap = NC[C@H](N)C(=O)O

Columns and labels:
[1] = tested on: Cy3-S13 / Cy5-L1 (T202C) ribosome complexes; experiment: Single-molecule L1-S13 FRET assay (ribosome conformational states); format: biochemical, E. coli
Method: Generation of Site-Specifically Labeled 30S Subunits and 50S Subunits.
Ribosomal protein S13 was PCR-cloned from E. coli strain K12 genomic DNA into the pPROEX HTb vector with a TEV-cleavable His6-tag and a 12-residue peptide encoding the S6 epitope for the Sfp phosphopantetheinyl transferase reaction (Yin 2006), fused at the N terminus. Following transformation of this plasmid into an E. coli ΔS13 knockout strain (Cukras 2005), cells were cultured and ribosomes were harvested as previously described (Wang 2011). Pure 30S subunits were isolated via sucrose gradient centrifugation in a low magnesium buffer (20 mM HEPES pH 7.5, 50 mM KCl, 10 mM NH4Cl, 0.5 mM EDTA, 6 mM BME, 1 mM MgCl2). 30S subunits containing Sfp-tagged S13 were isolated from this population by cobalt affinity chromatography (Clontech). Subsequently, the Sfp tag was enzymatically labeled and the His6-tag was enzymatically removed in a buffer containing 20 mM HEPES, pH 7.5, 100 mM KCl, 10 mM MgCl, and 6 mM BME. 20 μM N-Sfp-S13 30S subunits, 5 μM TEV protease, 250 μM Cy3-CoA and 25 μM Sfp were incubated for 24 h at 18° C. Sfp enzyme, TEV protease and unbound Cy3-CoA were then removed by filtration over a 100K membrane (Millipore). Prior to 70S complex formation, ribosomes were buffer exchanged into Tris-polymix buffer (Munro 2010c). 50S subunits labeled with Cy5-L1 (T202C) were prepared and purified as previously described (Munro 2010b).
Preparation of L1-S13 FRET Ribosome Complexes with tRNA^fMet or tRNA^Phe in the P Site.
Cy3-S13 30S and Cy5-L1 50S subunits were heat activated at 42° C. for 10 min in Tris-polymix Mg^2+ buffer and ribosomes were then initiated with fMet-tRNA^fMet or NAc-Phe-tRNA^Phe as previously described (Munro 2010c).
Single-Molecule L1-S13 FRET Assay.
All single-molecule FRET experiments were performed at room temperature in Tris-Polymix with 5 mM Mg^2+ buffer as previously described (Wang 2011), where oxygen scavenging and triplet-state quenching systems were employed (Dave 2009). Following surface immobilization (Munro 2007), the ribosome-bound, P-site tRNA was deacylated by incubation with 2 mM puromycin for 10 min at room temperature. The smFRET data were acquired by directly exciting the Cy3 fluorophore at 532 nm (LaserQuantum) while Cy3 and Cy5 intensities were simultaneously recorded in Metamorph (Molecular Devices) with 40 ms integration time. The data were analyzed in MATLAB (MathWorks) and plotted in Origin (OriginLab) as previously described (Munro 2007).

[2] = tested on: wild-type pre-translocation ribosome complexes; experiment: Single-molecule translocation assay (EF-G catalyzed), wild-type ribosome complexes; format: biochemical, E. coli; conditions: wild-type ribosomes
Method: (§1) Single-Molecule Translocation Assay.
(§2) Fluorescence-based, single-molecule translocation assays were carried out as previously described (Munro 2010c) on either wild-type or A1408G mutant pre-translocation ribosome complexes. Experiments were performed in Tris-polymix buffer (pH 7.5, 5 mM Mg(OAc)2) and analyzed as previously described (Munro 2010c; Wang 2011), plotting the fraction of translocating molecules as a function of time.

[3] = tested on: wild-type 70S ribosome complexes; experiment: Single-molecule ribosome recycling assay (loss of Cy5-labeled L1 fluorescence), wild-type; format: biochemical, E. coli; conditions: wild-type ribosomes; neomycin 0.1-100 μM
From the text: (§3) As described in the examples, this invention provides single-molecule assays for ribosome recycling which comprises surface-immobilizing a ribosome labeled on the 50S subunit in the presence of tRNA, RRF and EF-G under translation conditions; and monitoring changes in the signal from the label, wherein a change in the signal indicates recycling or lack thereof. For example, this assay can be conducted in solution or using smFRET like imaging techniques (following fluorescence decay), with the label on the ribosome being a fluorophore.
(§4) Single-Molecule Fluorescence Experiments.
(§5) All single-molecule fluorescence experiments were performed at room temperature in an MES-Polymix buffer that resembled the crystallization condition (50 mM MES, pH 6.5, 5.0 mM MgCl2, 350 mM NH4Cl, 5.0 mM putrescine, 5.0 mM spermidine, 5 mM (3-mercaptoethanol and 0.5 mM EDTA). Oxygen scavenging and triplet-state quenching systems used were as previously described (Dave 2009). The smFRET data were acquired with Metamorph (Molecular Device), and analyzed in MATLAB (Mathwork) and QuB (www.qub.buffalo.edu) as previously described (Munro 2010a,b). Subunit release was monitored by directly exciting the Cy5 fluorophore within surface-immobilized ribosome complexes (Coherent) at 10 mW laser power. […] Changes in fluorescence intensity were analyzed and plotted in Origin (OriginLab).

[4] = tested on: A1408G mutant pre-translocation ribosome complexes; experiment: Single-molecule translocation assay (EF-G catalyzed), A1408G ribosome complexes; format: biochemical, E. coli
From the text: (§6) Purification of A1408G Ribosomes.
(§7) Wild-type ribosomes and ribosomes bearing A1408G mutation were purified from a Δ7prrn E. coli MG1655 strain (RecA-) for single-molecule translocation and recycling experiments. The A1408G neomycin resistance mutation was introduced into a […] (KanR, SpecR) plasmid containing an rrnB operon (Komoda 2006) using Quickchange II site-directed mutagenesis (Stratagene). Wild-type and A1408G containing pRB102 plasmids (Komoda 2006) were then swapped into a Δ7prrn E. coli MG1655 (pKK3535, AmpR; ptRNA67, SpecR) strain. Tightly-coupled 70S ribosomes were purified from these strains in Tris-polymix buffer as previously described (Munro 2007).
as §1, §2

A1408G mutant ribosomes [5] = experiment: Single-molecule FRET tRNA incorporation (aa-tRNA selection) assay, A1408G mutant ribosomes; format: biochemical, E. coli
From the text: as §6, §7
(§8) Single-Molecule FRET tRNA Incorporation Assay.
The process of tRNA selection on the ribosome was monitored using single-molecule FRET by stropped-flow injection of a 10 nM solution of ternary complex (EF-Tu(GTP)·aa-tRNA) containing Phe-tRNA^Phe (Cy5-acp^3U47) to surface-immobilized ribosome complexes containing deacylated tRNA^fMet (Cy3-s^4U8) in the P site as previously described (Geggier 2010). Fluorescence and FRET traces were extracted from video and selected for analysis using automated analysis software implemented in MATLAB (MathWorks) using the segmental k-means algorithm (Qin, 1996). […]

A1408G mutant ribosomes [6] = experiment: Single-molecule ribosome recycling assay (loss of Cy5-labeled L1 fluorescence), A1408G; format: biochemical, E. coli; conditions: neomycin 0.1-100 μM
From the text: as §3
Purification of A1408G Ribosomes. […]
as §4, §5

wild-type ribosomes = experiment: Single-molecule FRET tRNA incorporation (aa-tRNA selection) assay, wild-type ribosomes; format: biochemical, E. coli
Method: as §8
The process of tRNA selection on the ribosome was monitored using single-molecule FRET by stropped-flow injection of a 10 nM solution of ternary complex (EF-Tu(GTP)·aa-tRNA) containing Phe-tRNA^Phe (Cy5-acp^3U47) to surface-immobilized ribosome complexes containing deacylated tRNA^fMet (Cy3-s^4U8) in the P site as previously described (Geggier 2010). Fluorescence and FRET traces were extracted from video and selected for analysis using automated analysis software implemented in MATLAB (MathWorks) using the segmental k-means algorithm (Qin, 1996). Complete accommodation of Phe-tRNA^Phe into the A site was marked by the first observation of a 400 ms dwell in a high ([…]) FRET state, structurally assigned to the “classical” pre-translocation complex configuration through previous investigations (Geggier 2010). Individual experiments, in which approximately 100 accommodation events were obtained, were performed in triplicate. The mean extent of accommodation and standard deviations are plotted as a function of time. Wild type and mutant ribosomes for these experiments were purified as previously described (Feldman 2010).

[7] = tested on: wild-type pre-translocation ribosome complexes; conditions: Feldman 2010; cited from earlier work
[8] = deacylated tRNA^fMet in the P site, no A-site tRNA, EF-G with GDPNP

For “RRF: ribosome recycling factor, purified from E. coli, C-terminal hexa-histidine tagged”, the “FRET state stabilized (L1-S13)” value [1, 8] was “high-FRET state was stabilized; also recorded: high-FRET rotated state”.
For EF-G: GTPase elongation factor-G, the “FRET state stabilized (L1-S13)” value [1, 8] was “high-FRET state was stabilized; also recorded: high-FRET, rotated state”.
With neomycin the “concentration at which substrate translocation is blocked” value [2] was “above 1 μM”, the “ribosome recycling mediated by RRF and EF-G” value [3] was “inhibited ribosome recycling” and the EF-G catalyzed translocation ([4]; A1408G mutant background, neomycin 0.01-100 μM, normalized to no drug) was “inhibits EF-G catalyzed translocation in a concentration dependent manner”. For the same compound, the “concentration at which substrate translocation is blocked” value ([4]; A1408G ribosomes) was “above 1 μM”, the “miscoding effects / incorporation of near-cognate tRNA” value (A1408G mutant ribosomes [5]; 100 nM neomycin) was “reduced; also recorded: almost entirely suppressed” and the “selection (incorporation) of cognate and near-cognate tRNA” value (A1408G mutant ribosomes [5]; 20 μM neomycin) was “both reduced; also recorded: Inhibition persisted”. The “ribosome recycling catalyzed by RRF, EF-G and GTP” value (A1408G mutant ribosomes [6]) was “inhibits the process of ribosome recycling catalyzed by RRF, EF-G and GTP in a concentration-dependent manner; also recorded: inhibited ribosome recycling”, the “selection of cognate tRNA” value (wild-type ribosomes; 100 nM neomycin, cognate (UUC) codon) was “negligible effects” and the “rates of near-cognate aa-tRNA accommodation” value (wild-type ribosomes; 100 nM neomycin, near-cognate (UCU) codon) was “substantially increased”. The “selection of both cognate and near-cognate tRNA” value (wild-type ribosomes; 20 μM neomycin) was “significantly attenuated”, the “neomycin concentration inhibiting translocation as potently as viomycin” value [7] was “higher than 100 nM” and the “ribosome conformation stabilized (L1-S13 FRET)” value ([1]; figure title, tRNA^fMet or tRNA^Phe in the P site) was “stabilizes an intermediate conformation of the ribosome”. The “FRET state stabilized (L1-S13)” value ([1]; higher neomycin concentrations (>1 μM), deacylated tRNA^fMet in the P site) was “stabilized a ribosome configuration exhibiting an intermediate FRET value” and the “FRET state favored (L1-S13)” value ([1]; low neomycin concentrations (<100 nM), deacylated tRNA^fMet in the P site) was “low-FRET state was favored”.
For `NCCC[C@H](N)CC(=O)N[C@H]1CNC(=O)[C@H]([C@H]2C[C@H](O)NC(N)=N2)NC(=O)/C(=C/NC(N)=O)NC(=O)[C@H](CO)NC(=O)[C@H](CO)NC1=O` [viomycin] (β3hOrn-[Dap]SS[ΔAla(Z-3-ureido)][X1]; lactam 1-C), the “FRET state stabilized (L1-S13)” value [1, 8] was “high-FRET state was also favored; also recorded: rotated state”.
